Measured values: PubChem BioAssay (NCI)
Several values for one entry are separate records, joined by “and”; a condition that tells them apart may be missing. Equal entries are not always repeated.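 1) Cells in 96-well plates. 2) Compound, 48 h, 5 concentrations. 3) Linear interpolation between surrounding doses. 4) Unreached endpoint = highest concentration. At the GI50, growth is halved. At the TGI there is no net growth.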

Key:
Assay in all cases: NCI-60 cell line screen, 48 h
EKVX NSCLC = system: EKVX NSCLC
HT29 colon = system: HT29 colon
NCI-H460 lung = system: NCI-H460 lung
A549 NSCLC = system: A549 NSCLC
SF-539 CNS = system: SF-539 CNS
M14 melanoma = system: M14 melanoma
TK-10 renal = system: TK-10 renal
HCC-2998 colon = system: HCC-2998 colon

| Compound | GI50 (EKVX NSCLC) | TGI (EKVX NSCLC) | GI50 (HT29 colon) | TGI (HT29 colon) | GI50 (NCI-H460 lung) | TGI (NCI-H460 lung) | GI50 (A549 NSCLC) | TGI (A549 NSCLC) | GI50 (SF-539 CNS) | TGI (SF-539 CNS) | GI50 (M14 melanoma) | TGI (M14 melanoma) | GI50 (TK-10 renal) | TGI (TK-10 renal) | GI50 (HCC-2998 colon) | TGI (HCC-2998 colon) |
| --- | --- | --- | --- | --- | --- | --- | --- | --- | --- | --- | --- | --- | --- | --- | --- | --- |
| CCCCCCCCCCCCCCCC(=O)NS(=O)(=O)OC[C@H]1O[C@@H](n2cnc3c(N)ncnc32)[C@H](O)[C@@H]1O | 0.271 µM | 1.74 µM | 0.0402 µM | 0.342 µM | 0.107 µM | 8.6 µM | 1.67 µM | 3.82 µM | 0.118 µM | 0.359 µM | 0.632 µM | 2.17 µM | < 0.0163 µM | < 0.0259 µM | < 0.0192 µM | < 0.038 µM |
| COc1ccc2c(c1)OCC1c3cc(OC)c4ccccc4c3OC21 (stereo unspecified) | 25.1 µM | > 100 µM | 3.84 µM | > 100 µM | 4.44 µM | > 100 µM | 15.8 µM | > 100 µM | 21.3 µM | > 100 µM | 7.23 µM | > 100 µM | 11.8 µM | 53.9 µM | 1.98 µM | 7.26 µM |
| C[n+]1cccc(NC(=O)c2ccc3ccc4ccc(C(=O)Nc5ccc[n+](C)c5)nc4c3n2)c1 | 5.08 µM | > 100 µM | 2.38 µM | > 100 µM | 0.149 µM | 3.42 µM | 0.155 µM | > 100 µM | 3.33 µM | 15.6 µM | 3.67 µM | > 100 µM | 53.7 µM | > 100 µM | 3.04 µM | > 100 µM |
| COc1cc(/C=C2\CCC/C(=C\c3cc(CN4CCCC4)c(O)c(OC)c3)C2=O)cc(CN2CCCC2)c1O | 6.94 µM | 20.2 µM | 0.322 µM | 1.78 µM | 2.97 µM | 10.6 µM | 3.5 µM | 12.8 µM | 1.72 µM | 3.63 µM | 2.9 µM | 8.63 µM | 4.36 µM | 15.5 µM | 2.55 µM | 6.38 µM |
| Cc1[nH]c(C(=O)Nc2cccc(OC3CCNCC3)c2)c(Cl)c1Cl | 1.57 µM | 3.39 µM | 1.92 µM | 4.44 µM | 1.95 µM | 3.7 µM | 2.04 µM | 4.17 µM | 1.64 µM | 3.06 µM | 1.8 µM | 3.52 µM | 1.94 µM | 3.7 µM | 1.76 µM | 3.31 µM |
| CCN1C(=O)/C(=c2\sc3n(c2=O)C2C(NN=3)N(CC)C(=O)N2CC)c2ccccc21 (stereo unspecified) | 0.851 µM | > 100 µM | 0.369 µM | > 100 µM | 0.402 µM | > 100 µM | 0.795 µM | > 100 µM | 0.271 µM | 0.937 µM | 0.347 µM | 21.7 µM | 5.97 µM | 24.6 µM | 0.859 µM | > 76.8 µM |
| COc1ccc2[nH]c(C(=O)OCc3ccc4c(Br)cc(Br)c(O)c4n3)cc2c1 | 1.41 µM | 2.82 µM | 0.39 µM | 1.49 µM | 1.48 µM | 3.18 µM | 1.63 µM | 3.54 µM | 0.768 µM | 2.05 µM | 0.83 µM | 2.29 µM | 1.39 µM | 2.71 µM | 1.57 µM | 3.06 µM |
| C=C(C(=O)c1ccccc1)C(NC(C)(C)C)c1ccccc1 (stereo unspecified) | 3.53 µM | 13.7 µM | 1 µM | 3.13 µM | 2.15 µM | 5.23 µM | 2.74 µM | 7.79 µM | 3.21 µM | 8.36 µM | 1.87 µM | 4.65 µM | 1.02 µM | 2.25 µM | 1.81 µM | 3.38 µM |
| Cc1c(O)cccc1C(=O)N[C@@H](CSc1ccccc1)[C@H](O)CN1C[C@H]2CCCC[C@H]2C[C@H]1C(=O)NC(C)(C)C | 4.86 µM and 6.92 µM | 38 µM and > 43.4 µM | 3.06 µM and 5.65 µM | 12 µM and 19.9 µM | 3.48 µM and 4.79 µM | 13.8 µM and 11.4 µM | 3.01 µM and 4.94 µM | 10.8 µM and 22.8 µM | 6.35 µM and 5.55 µM | 22.2 µM and 16.2 µM | 4.45 µM and 5.2 µM | 16.4 µM and 15.4 µM | 4.26 µM and 5.89 µM | 23.6 µM and 24.5 µM | 3.6 µM and 4.97 µM | 10.5 µM and 13.6 µM |
| CN1C(=O)C(N=Nc2ccc([N+](=O)[O-])cc2)SC1=S (stereo unspecified) | 2.82 µM and 8.54 µM | 28 µM and 96.9 µM | 3.63 µM and 10.8 µM | 33.7 µM and > 100 µM | 2.98 µM and 5.43 µM | 24.9 µM and > 100 µM | 5.78 µM and 14.1 µM | > 100 µM | 6.57 µM and 7.08 µM | 58.1 µM and 70.4 µM | 7.61 µM and 19.2 µM | > 100 µM | 12.6 µM and 5.87 µM | 79.7 µM and > 100 µM | 3.21 µM and 6.71 µM | 48.2 µM and 49.6 µM |
| CCOC(=O)C1=C(C)NC2SC(=O)/C(=C\c3cccc(Cl)c3)N2C1c1ccccc1 (stereo unspecified) | > 100 µM | > 100 µM | > 100 µM | > 100 µM | > 100 µM | > 100 µM | > 100 µM | > 100 µM | > 100 µM | > 100 µM | > 100 µM | > 100 µM | > 100 µM | > 100 µM | > 100 µM | > 100 µM |
| Nc1nc(N)c2cc(S(=O)(=O)c3ccc4ccccc4c3)ccc2n1 |  | > 100 µM | 2.34 µM | > 100 µM |  | > 100 µM |  | > 100 µM |  | > 74.7 µM | 2.23 µM | > 100 µM |  | > 81.2 µM |  | > 100 µM |
